The subject of data set [1] is HuTu 80 human duodenal adenocarcinoma cells. Briefly: MTT cytotoxicity assay, HuTu 80. Type of data set: cell-based. Particulars: for IC50: Homo sapiens, HuTu80, MTT, tested at 1–200 µM, three independent experiments; for SI (selectivity index) HuTu 80: HuTu 80 versus normal WI38 cells. (In general: Tetrazolium dyes change colour on reduction, which living cells bring about.)

Data set [2] concerns M-HeLa human cervix carcinoma cells. As to the kind of experiment: MTT cytotoxicity assay, M-HeLa. Type of data set: cell-based. The note with it: for IC50: Homo sapiens, M-HeLa, tested at 1–200 µM, three independent experiments; for IC50 / cytotoxicity against M-HeLa (in words): MTT; for SI (selectivity index) M-HeLa: M-HeLa versus normal WI38 cells.
The subject of data set [3] is WI38 human fibroblast cell line. As to the kind of experiment: MTT cytotoxicity assay, normal WI38 cells. The class given is cell-based. The note with it: WI-38, tested at 1–200 µM, three independent experiments.
Data set [4] has as its system RPMI 1788 human healthy donor peripheral blood leukocytes. Briefly: MTT cytotoxicity assay, normal RPMI 1788 cells. Type of data set: cell-based. The note with it: tested at 1–200 µM, three independent experiments, read-out: IC50 RPMI 1788 (normal cell line).
The subject of data set [5] is HL-60 human promyelocytic leukemia cells. As to the kind of experiment: MTT cytotoxicity assay, HL-60. The class given is cell-based. Particulars: for IC50: Homo sapiens, HL-60, MTT, tested at 1–200 µM, three independent experiments.
The subject of data set [6] is lymphatic leukemia P388. As to the kind of experiment: Antitumor activity, syngeneic lymphatic leukemia P388 in BDF1 mice. The class given is in vivo, mouse. The note with it: for ILS / MST ± SD: i.p. days 1, 5, 9. The procedure: At the next stage, we evaluated them in vivo using syngeneic mouse leukosis P388, which plays an important role in the screening of potential antitumor agents. The antitumor effect of the synthesized compounds was evaluated according to the increase in the average lifespan (ILS, %) of tumor-bearing animals. Due to the fact that physiologically relevant solvent, such as water or physiological solution [49], can be used as a solvent for parenteral administration of substances, we chose only water-soluble compounds 4o–r for the in vivo study.
As model tumors for the determination of antitumor activity of phosphorus-containing derivatives of pyrrolidine, the strain of lymphatic leukemia P388 was chosen. Lymphatic leukemia P388 was transplanted into hybrid mice of the BDF1 line intraperitoneally in accordance with the standard procedure. The inoculum contained 10^6 tumor cells in isotonic solution of NaCl. […] In each experiment, the control group was represented by the cohort of animals with tumors not treated with the compounds. Each group consisted of six mice. The animals were inspected daily over at least 60 days. The effectiveness of therapy was evaluated by the number of surviving animals, as well as by the increase in the average lifespan (ILS%), which was evaluated as the percentage of the mean survival time (MST) of the treated group (t) as compared to the control group (c): […].

Setting [7] is: dose 12 (table prints no unit; b71 mg/kg).
[8] abbreviates: dose 17 (table prints no unit; b71 mg/kg).
The mark [9] stands for this setting: dose 26 (table prints no unit; b71 mg/kg).
The mark [10] stands for this setting: dose 37 (table prints no unit; b71 mg/kg).
The mark [11] stands for this setting: dose 55 (table prints no unit; b71 mg/kg).

Structures are written as SMILES.

As a reminder, the IC50 is the midpoint of a concentration-inhibition curve.

For the molecule `Nc1ncnc2c1ncn2CCS(=O)(=O)N1CCCC1P(=O)(c1ccccc1)c1ccccc1` (stereo not drawn) [Compound 4u, (1-((2-(6-Amino-9H-purin-9-yl)ethyl)sulfonyl)pyrrolidin-2-yl)diphenylphosphine oxide], the IC50 in data set [1], in data set [2] and in data set [3] was greater than 100 µM each time.

For the molecule `O=C(O)c1cn(C2CC2)c2cc(N3CCN(CCS(=O)(=O)N4CCCC4P(=O)(c4ccccc4)c4ccccc4)CC3)c(F)cc2c1=O` (stereo not drawn) [Compound 4z, 1-Cyclopropyl-7-(4-(2-((2-(diphenylphosphoryl)pyrrolidin-1-yl)sulfonyl)ethyl)piperazin-1-yl)-6-fluoro-4-oxo-1,4-dihydroquinoline-3-carboxylic acid], in data set [1], half-maximal inhibition (IC50) required 64.6 ± 5.1 µM and the “SI (selectivity index) HuTu 80” value worked out at 1.9. Besides, in data set [2], inhibition was half-maximal at 85.9 ± 8.2 µM (IC50) and the “SI (selectivity index) M-HeLa” value is given as 1.4. The molecule further gave an IC50 in data set [3] of 123 ± 9.6 µM.

On to `Cc1c(C2CCCN2S(=O)(=O)CCNCC(=O)O)c(=O)n(-c2ccccc2)n1C` (stereo not drawn) [Compound 4m, (2-((2-(1,5-Dimethyl-3-oxo-2-phenyl-2,3-dihydro-1H-pyrazol-4-yl)pyrrolidin-1-yl)sulfonyl)ethyl)glycine], for which the IC50 in data set [1] was 87 ± 7 µM; in data set [2] it was greater than 100 µM; in data set [3] it was greater than 100 µM. The “SI (selectivity index) HuTu 80” value in data set [1] is greater than 1.1.

As to `O=C(O)[C@@H](NCCS(=O)(=O)N1CCCC1P(=O)(c1ccccc1)c1ccccc1)c1c[nH]c2ccccc12` (stereo partly drawn) [Compound 4x, (2S)-2-((2-((2-(Diphenylphosphoryl)pyrrolidin-1-yl)sulfonyl)ethyl)amino)-2-(1H-indol-3-yl)acetic acid], the IC50 in data set [1] is greater than 100 µM; in data set [2], 98.2 ± 8.3 µM; in data set [3] it was 128 ± 10 µM. In data set [2], the “SI (selectivity index) M-HeLa” value was determined as 1.3.

In the case of `Cl.O=P(c1ccccc1)(c1ccccc1)C1CCCN1S(=O)(=O)CCN1CCOCC1` (stereo not drawn) [Compound 4s, 4-(2-((2-(Diphenylphosphoryl)pyrrolidin-1-yl)sulfonyl)ethyl)morpholin-4-ium chloride], the IC50 in data set [1] was greater than 100 µM; in data set [2], 78.4 ± 6.6 µM; in data set [3] it was 91.8 ± 8.4 µM; in data set [4], greater than 100 µM; in data set [5] it was greater than 100 µM. Besides, the “SI (selectivity index) HuTu 80” value in data set [1] is on record as “- ((-)—no selectivity)”. In addition, the “SI (selectivity index) M-HeLa” value in data set [2] came out at 1.2.

As for `O=C(O)c1cn(C2CC2)c2cc(N3CCN(CCS(=O)(=O)N4CCCC4N4C(=O)CCN4c4ccccc4)CC3)c(F)cc2c1=O` (stereo not drawn) [Compound 4l, 1-Cyclopropyl-6-fluoro-4-oxo-7-(4-(2-((2-(5-oxo-2-phenylpyrazolidin-1-yl)pyrrolidin-1-yl)sulfonyl)ethyl)piperazin-1-yl)-1,4-dihydroquinoline-3-carboxylic acid], the IC50 in data set [1] is greater than 100 µM; in data set [2] it was 85.4 ± 7.5 µM; in data set [3] it was 154 ± 12 µM. For the same molecule, the “SI (selectivity index) M-HeLa” value in data set [2] was found to be 1.8. Moreover, in data set [2], the “cytotoxicity against M-HeLa (in words)” value is “moderate cytotoxicity”.

As for `O=C(O)CNCCS(=O)(=O)N1CCCC1P(=O)(c1ccccc1)c1ccccc1` (stereo not drawn) [Compound 4v, 2-((2-((2-(Diphenylphosphoryl)pyrrolidin-1-yl)sulfonyl)ethyl)amino)acetic acid], the IC50 in data set [1] is greater than 100 µM; in data set [2], 96.2 ± 8.4 µM; in data set [3], 211 ± 17 µM. The “SI (selectivity index) M-HeLa” value in data set [2] is recorded as 2.2.

For the molecule `CCN(CC)CCS(=O)(=O)N1CCCC1P(=O)(c1ccccc1)c1ccccc1.Cl` (stereo not drawn) [Compound 4o, 2-((2-(Diphenylphosphoryl)pyrrolidin-1-yl)sulfonyl)-N,N-diethylethanaminium chloride], the IC50 was greater than 100 µM in data set [1]; 56.7 ± 4.8 µM in data set [2]; 84.3 ± 7.2 µM in data set [3]; greater than 100 µM in data set [4]; greater than 100 µM in data set [5]. Besides, the “SI (selectivity index) HuTu 80” value in data set [1] is “- ((-)—no selectivity)”. Moreover, the “SI (selectivity index) M-HeLa” value in data set [2] was 1.5. For the same molecule, in data set [2], the “cytotoxicity against M-HeLa (in words)” value is “moderate cytotoxicity”. For the same molecule, the ILS is reported as 7% in data set [6] (setting [7]); −5% in data set [6] (setting [8]); 17% in data set [6] (setting [9]); 7% in data set [6] (setting [10]); 5% in data set [6] (setting [11]). Also, the “MST ± SD” value in data set [6] (setting [7]) came to 10.7 ± 1.0 days; in data set [6] (setting [8]), 9.5 ± 0.8 days; in data set [6] (setting [9]) it was 11.7 ± 1.9 days; in data set [6] (setting [10]) it was 10.7 ± 0.9 days; in data set [6] (setting [11]), 10.5 ± 1.2 days. For the same molecule, the “antileukemia / antitumor effect (in words)” value in data set [6] (doses under study, i.p.) is “did not display antitumor effect”.

As for `Nc1ncnc2c1ncn2CCS(=O)(=O)N1CCCC1N1C(=O)CCN1c1ccccc1` (stereo not drawn) [Compound 4c, 2-(1-((2-(6-Amino-9H-purin-9-yl)ethyl)sulfonyl)pyrrolidin-2-yl)-1-phenylpyrazolidin-3-one], in data set [1], the IC50 is greater than 100 µM and the “SI (selectivity index) HuTu 80” value is “- ((-)—no selectivity)”. Moreover, in data set [2], the IC50 is greater than 100 µM and the “SI (selectivity index) M-HeLa” value is on record as “- ((-)—no selectivity)”. For the same molecule, the midpoint of inhibition in data set [3], the IC50, lay at 100 µM.

For the molecule `O=P(c1ccccc1)(c1ccccc1)C1CCCN1S(=O)(=O)CCNCCS(=O)(=O)O` (stereo not drawn) [Compound 4y, 2-((2-((2-(Diphenylphosphoryl)pyrrolidin-1-yl)sulfonyl)ethyl)amino)ethane-1-sulfonic acid], in data set [1], the IC50 stood at 100 ± 9.2 µM and the “SI (selectivity index) HuTu 80” value was 1.2. Moreover, in data set [2], the IC50 turned out to be 62.5 ± 5.3 µM, the “SI (selectivity index) M-HeLa” value came out at 1.9 and the “cytotoxicity against M-HeLa (in words)” value is “moderate cytotoxicity”. Also, the IC50 in data set [3] amounted to 120 ± 9.3 µM.

In the case of `COc1cccc2c1C(=O)c1c(O)c3c(c(O)c1C2=O)C[C@@](O)(C(=O)CO)C[C@@H]3O[C@H]1C[C@H](N)[C@H](O)[C@H](C)O1` [Doxorubicin, reference compound], the IC50 in data set [4] worked out at 3.3 ± 6.6 µM; in data set [5], 3 ± 4.7 µM. In addition, the “SI (selectivity index) HL-60” value in data set [5] (HL-60 versus normal RPMI 1788 leukocytes) stood at 1.1.

For `O=C1CCN(c2ccccc2)N1C1CCCN1S(=O)(=O)CCN1CCCCC1` (stereo not drawn) [Compound 4b, 1-Phenyl-2-(1-((2-(piperidin-1-yl)ethyl)sulfonyl)pyrrolidin-2-yl)pyrazolidin-3-one], the figures for the IC50 in data set [1], in data set [2] and in data set [3] were greater than 100 µM, 87 ± 6.8 µM and 88.3 ± 7.1 µM, respectively. Moreover, in data set [1], the “SI (selectivity index) HuTu 80” value is given as “- ((-)—no selectivity)”. In data set [2], the “SI (selectivity index) M-HeLa” value was 1.

For `O=c1[nH]cc(F)c(=O)[nH]1` [5-Fluorouracil, reference compound], the IC50 in data set [1] amounted to 65.2 ± 5.5 µM; in data set [2], 75.6 ± 6.1 µM; in data set [3] it was 62 ± 4.8 µM. The “SI (selectivity index) HuTu 80” value in data set [1] is recorded as 1. Besides, the “SI (selectivity index) M-HeLa” value in data set [2] is on record as “- ((-)—no selectivity)”.

These data come from paper PMC12300679, “Taurine-Based Hybrid Drugs as Potential Anticancer Therapeutic Agents: In Vitro, In Vivo Evaluations” (Pharmaceuticals, 2025).
